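Assay format: 96-well plates, 48-hour exposure. GI50: concentration for 50% inhibition of growth. TGI marks complete inhibition of growth.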
Tests used:
Assay in all cases: growth of human tumour cells (NCI), 48 h
[1] = test system: HCT-116 colon
[2] = test system: HL-60(TB) leukemia
[3] = test system: HOP-62 NSCLC
[4] = test system: HT29 colon
[5] = test system: MALME-3M melanoma
[6] = test system: PC-3 prostate
[7] = test system: SK-MEL-5 melanoma
[8] = test system: SNB-75 CNS
[9] = test system: T-47D breast

Structure (SMILES)	TGI [1] [µM]	TGI [2] [µM]	TGI [3] [µM]	TGI [4] [µM]	TGI [5] [µM]	TGI [6] [µM]	TGI [7] [µM]	TGI [8] [µM]	TGI [9] [µM]	GI50 [1] [µM]	GI50 [2] [µM]	GI50 [3] [µM]	GI50 [6] [µM]	GI50 [7] [µM]	GI50 [8] [µM]	GI50 [9] [µM]
Oc1ccc(Cl)cc1C1=N/C(=N\CN2CCN(C/N=C3/N=C(c4cc(Cl)ccc4O)CC(c4ccccc4)N3)CC2)NC(c2ccccc2)C1 (stereo unspecified)	46.3	> 100	> 100	> 100	> 100	> 100	> 100	96.8								
CN(C)C(=S)N/N=C\C=N/NC(=S)N(C)C	> 100			> 100		> 100	> 100	> 100	> 100							
S=C1c2ccccc2NC(=NC2CCCC2)C2CSCN12 (stereo unspecified)	> 100		> 100	> 100	> 100	> 100	> 100		> 100							
COc1ccc2c(c1)OC(c1cccnc1)C(c1ccccc1)C2=O (stereo unspecified)	> 100	> 100	> 100	> 100	> 100	> 100	> 100	> 100	> 100							
N#CC1=C2Sc3ccccc3N2[C@H](c2ccccc2)[C@H]2COC(=O)[C@@H]12	> 100		> 100		81.8	> 100	> 100	97.1	> 100							
CC(=O)Oc1ccc(/C=C/C(=O)O[C@@H](C)[C@H](C)OC(=O)/C=C/c2ccc(OC(C)=O)c(OC(C)=O)c2)cc1OC(C)=O	> 100		56.3		63.5	> 100	29.2	> 100	61.2							
Brc1ccc(N=NN2CCCCC2)cc1	> 100		> 100			> 100	> 100	> 100	> 100							
c1ccc2c(-c3cnc(-c4c[nH]c5ccccc45)cn3)c[nH]c2c1	94.2		> 100		> 100	> 100	> 100	94.4	> 100							
NCCC(N)C(=O)O (stereo unspecified)	> 100	> 100	> 100	> 100	> 100	> 100	> 100		> 100							
CN1CC2=C(OC(N)=C(C#N)C2c2cccs2)/C(=C/c2cccs2)C1 (stereo unspecified)	> 49.3	12	51.9	> 78.3	38.4	> 60.5	14.4		1.47							
COc1ccc2nc3cc(Cl)ccc3c(NCCCCCC(=O)NC(COc3cnc4c(ccc5cccnc54)c3)COc3cnc4c(ccc5cccnc54)c3)c2c1	14.9	15.1	35.8	> 100	> 100	26.8		4.78	28.6							
CC(=O)C(C(C)=O)=C1CCCC(O)O1 (stereo unspecified)	> 100	> 100	> 100	> 100	> 100		> 100	> 100	> 100							
Cc1ccc(C)n2c1nc1ccc3ccccc3c12		> 100	> 100	> 100	> 100	> 100	> 100	86	> 100							
O=[N+]([O-])c1cccc(-c2csc(N=Nc3c(O)[nH]c4ccccc34)n2)c1	33.2	50.2	59.6	44.5		99.4	49.9	56.1	82.4							
COc1ccc(N(C(=O)Nc2ccc(Cl)c(Cl)c2)c2ccccc2)cc1	> 10	> 10	> 10	> 10	> 10	> 10	> 10		> 10							
COc1ccc(N2C=Nn3c(nc4sc(C)c(C)c4c3=O)C2)cc1	> 100		> 100	> 100	> 100	> 100	> 100	> 100	> 100							
CCOC(=O)/C(=C\NCC(O)c1ccccc1)c1nc2ccccc2[nH]1 (stereo unspecified)	86.3	37.1	> 100	56.7	52		22.9	58.2								
Cc1cn(C2CC(n3cc(Cn4cc(F)c(=O)[nH]c4=O)nn3)C(CO)O2)c(=O)[nH]c1=O (stereo unspecified)	> 100	> 100	> 100		> 100	> 100	> 100	> 100	> 100							
CSc1c(C(=O)Nc2ccccc2)c(N)nn1-c1ccccc1	> 100	> 100		> 100	> 100	> 100	> 100	> 100	> 100							
COC(=O)CCCc1ccc2c(c1)CC1(C2)Cc2cc3c(cc2C1)CCCC3	15.9	29.2	> 100	> 100	> 100	> 100	41.2		> 100							
Cc1c(C)c(C)c(-n2[nH]c(=O)n(C)c2=O)c(C)c1C	> 100	> 100	> 100	> 100		> 100	> 100	> 100	> 100							
CCOC(C[Se]CC(OCC)OCC)OCC	> 100	76.5		> 100	> 100	> 100	29.6	38.8	> 100							
Cc1ccc2[nH]cc(-c3nc(-c4c[nH]c5ncccc45)cs3)c2c1	> 100	> 100	> 100			> 100	> 100	> 100	> 100	> 100	> 100	> 100	> 100	> 100	> 100	> 100
C=CCC(C)C12CCNC(Cc3ccc(O)cc31)C2C (stereo unspecified)	> 100		> 100	> 100	> 100		> 100	> 100	> 100							
Cc1nc2ccc(S(=O)(=O)Nc3ccc(Cl)cc3)cc2c(=O)n1NC(=O)CNc1ccc(Cl)cc1	> 100	> 100	> 100	> 100	> 100	> 100		> 100								
